Results on one compound are retold here after US8093288B2, “Genipin derivatives and uses thereof” (Beth Israel Deaconess Medical Center, priority 2003, dated 2012).

The subject of one assay is WT islets. Nature of the assay: Glucose-stimulated insulin secretion in WT islets after chronic hyperglycemia. Format: cell-based, mice. Conditions: WT islets after 72 hours at 25 mM glucose; 5 μM genipin acutely added; 5.5, 12.5, 25 mM glucose; FIG. 12A. The procedure:
(§1) Pancreatic islets were isolated from WT (FIG. 12A) or UCP2 KO mice (FIG. 12B) and subjected to chronic incubations at low (5.5 mM) and high glucose (25 mM). In a separate experiment, islets were isolated from ob/ob mice (FIG. 12C). Islets were incubated for a total of 72 hours and washed, and then insulin-secretion studies were performed using three different concentrations of glucose (5.5, 12.5, and 25 mM) with or without 5 μM genipin. Results are means±SEM of four independent experiments (FIGS. 12A and 12B) or eight to twenty repeats of one representative experiment (FIG. 12C). WT islets that were chronically incubated at low glucose released increasing amounts of insulin in response to increasing concentrations of glucose (FIG. 12A, left panel). Following chronic hyperglycemia, islets increased basal insulin release, but were completely unresponsive to glucose stimulation (FIG. 12A, middle panel). […] To assess the role of genipin in hyperglycemia-induced loss of glucose responsiveness, genipin was acutely added into islets during the insulin-release phase of the study.

For assay [1], the system named is high fat diet-fed UCP2 knockout mice. Nature of the assay: Blood glucose and insulin after genipin injection in high fat diet-fed UCP2 knockout mice. Type of assay: in vivo. The following applies: high fat diet 24 weeks, 20 hours fasting, 300 μg genipin injected, thirty minutes after injection. How it is done:
(§2) Wildtype and UCP2 knockout mice were placed on a high fat diet obtained from Research Diets Inc., New Brunswick, N.J. (cat. no. D12331, HFD). The fat source was coconut oil and comprised 58% of the total calories. The mice remained on the high fat diet for 24 weeks. After the 24 weeks, both the wildtype and the UCP2 knockout mice were obese (about 50-60 g). After 20 hours of fasting, the blood glucose and insulin levels of the mice were measured, then the mice were injected with 300 μg of genipin. Thirty minutes after injection the blood glucose and insulin levels of the mice were measured again. Blood glucose levels were assessed using a glucometer (One touch, Lifescan, Milpitas, Calif.). Serum insulin concentrations were assessed using mouse insulin as a standard (Rat Insulin ELISA Kit. cat. #INSKR020 Crystal Chem. Inc., Chicago, Ill.). […] A comparison of the effect of genipin on the blood glucose levels and insulin levels in wildtype and UCP2 knockout mice can be seen in FIGS. 7 and 10, respectively.

The test system of assay [2] is WT mice on chow diet, WT mice on high fat diet, ob/ob mice. Nature of the assay: Serum insulin in vivo after genipin injection in WT (chow, HFD) and ob/ob mice. Conditions: WT chow (6 hours fasting, 10 mg/kg), WT HFD (20 hours fasting, 10 mg/kg), ob/ob (20 hours fasting, 20 mg/kg); injected; FIGS. 13A-C. How it is done: UCP2-deficient mice have increased serum insulin levels. Genipin inhibits UCP2 activity, and thus should stimulate insulin secretion acutely in vivo. In the present study, the effect of genipin on insulin secretion in vivo was assessed. WT and UCP2 KO mice were fed a chow diet (FIG. 13A), or placed on a high fat diet (HFD) (FIG. 13B) (#D12331, obtained from Research Diets Inc., New Brunswick, N.J.). The fat source was coconut oil and comprised 58% of the total calories. The mice remained on the HFD for 24 weeks. Both WT and KO mice were obese (50-60 g). ob/ob mice (FIG. 13C) were obtained from The Jackson Laboratory. After 6 hours (FIG. 13A) or 20 hours (FIGS. 13B and 13C) of fasting, genipin (10 mg/kg (FIGS. 13A and 13B), or 20 mg/kg (FIG. 13C)) was injected into the mice. Serum insulin levels were measured before and after administration of genipin as indicated.

The subject of the next assay is UCP2 KO islets. Put plainly: Glucose-stimulated insulin secretion in UCP2 KO islets after chronic hyperglycemia. The following applies: UCP2 KO islets after 72 hours at 25 mM glucose; 5 μM genipin; FIG. 12B. Format: cell-based, mice. The procedure: as §1, with “study. […] To see whether this effect of genipin is mediated by UCP2, islets were isolated from UCP2 KO mice and then incubated in chronic hyperglycemia. […]” for “study.”

The test system of assay [3] is high fat diet-fed wildtype mice. Nature of the assay: Blood glucose and insulin after genipin injection in high fat diet-fed wildtype mice. Format: in vivo. The following applies: high fat diet 24 weeks, 20 hours fasting, 300 μg genipin injected, thirty minutes after injection. The procedure:
as §2

SMILES strings stand for the structures.

Turning to `COC(=O)C1=CO[C@@H](O)[C@@H]2C(CO)=CC[C@H]12` [genipin], the “glucose-stimulated insulin secretion (GSIS)” value in the assay with WT islets is “prevented the hyperglycemia-induced block in GSIS”; in the assay on UCP2 KO islets it was “no additional beneficial effect on GSIS”. For the same compound, the blood glucose levels entry in assay [1] (FIG. 6) is “little effect”; in assay [3] (FIG. 5), “significantly lowered blood glucose”. In addition, in assay [1] (FIG. 9), the insulin levels entry was “little effect”. Moreover, the serum insulin levels entry in assay [2] was “can increase insulin levels in all three animal models”. Moreover, in assay [3] (FIG. 8), the blood insulin levels result was “dramatically increase the blood insulin levels”.
